Measurements reported in ChEMBL document CHEMBL3045544, “Synthesis, antimicrobial and antioxidant activities of some new indole derivatives containing pyridopyrimidine and pyrazolopyridine moieties” (Med Chem Res, 2013).

Experiments:
Aspergillus niger = test: Antimicrobial activity against Aspergillus niger MTCC 281 assessed as diameter of growth inhibition zone at 500 ug/ml after 72 hr by cup-plate method; type: functional; details: MTCC 281, 72 h, read-out: DIZ
Aspergillus terreus = test: Antimicrobial activity against Aspergillus terreus MTCC 1782 assessed as diameter of growth inhibition zone at 500 ug/ml after 72 hr by cup-plate method; type: functional; details: MTCC 1782, 72 h, read-out: DIZ
Pseudomonas aeruginosa = test: Antimicrobial activity against Pseudomonas aeruginosa MTCC 1688 assessed as diameter of growth inhibition zone at 500 ug/ml after 24 hr by cup-plate method; type: functional; details: MTCC 1688, 24 h, read-out: DIZ
Staphylococcus aureus = test: Antimicrobial activity against Staphylococcus aureus ATCC 29513 assessed as diameter of growth inhibition zone at 500 ug/ml after 24 hr by cup-plate method; type: functional; details: ATCC 29513, 24 h, read-out: DIZ
Escherichia coli = test: Antimicrobial activity against Escherichia coli MTCC 723 assessed as diameter of growth inhibition zone at 500 ug/ml after 24 hr by cup-plate method; type: functional; details: MTCC 723, 24 h, read-out: DIZ
Aspergillus flavus = test: Antimicrobial activity against Aspergillus flavus MTCC 1973 assessed as diameter of growth inhibition zone at 500 ug/ml after 72 hr by cup-plate method; type: functional; details: MTCC 1973, 72 h, read-out: DIZ
Klebsiella pneumoniae = test: Antimicrobial activity against Klebsiella pneumoniae NCTC 13368 assessed as diameter of growth inhibition zone at 500 ug/ml after 24 hr by cup-plate method; type: functional; details: NCTC 13368, 24 h, read-out: DIZ
Aspergillus oryzae = test: Antimicrobial activity against Aspergillus oryzae MTCC 3567 assessed as diameter of growth inhibition zone at 500 ug/ml after 72 hr by cup-plate method; type: functional; details: MTCC 3567, 72 h, read-out: DIZ
[1] = tested on: Radical scavenging activity; test: Antioxidant activity assessed as DPPH radical scavenging activity at 75 ug/ml by spectrophotometric analysis; type: functional
[2] = Metal chelating activity of the compound assessed as inhibition of ferrozine Fe2+ complex formation at 25 to 100 ug/ml after 10 min by spectrophotometric analysis; type: physicochemical
[3] = tested on: Radical scavenging activity; test: Antioxidant activity assessed as DPPH radical scavenging activity at 50 ug/ml by spectrophotometric analysis; type: functional

SMILES	zone of inhibition at 500 µg/mL (Aspergillus niger)	zone of inhibition at 500 µg/mL (Aspergillus terreus)	zone of inhibition at 500 µg/mL (Pseudomonas aeruginosa)	zone of inhibition at 500 µg/mL (Staphylococcus aureus)	zone of inhibition at 500 µg/mL (Escherichia coli)	zone of inhibition at 500 µg/mL (Aspergillus flavus)	zone of inhibition at 500 µg/mL (Klebsiella pneumoniae)	zone of inhibition at 500 µg/mL (Aspergillus oryzae)	Activity [1]	inhibition (INH) [2]	Activity [3]
Cc1ccc2[nH]c(-c3ccccc3)c(-c3cc(-c4ccccc4)nc4nc[nH]c(=O)c34)c2c1	9 mm	10 mm	10 mm	6 mm	5 mm	10 mm	9 mm	8 mm			
Cc1ccc2[nH]c(-c3ccccc3)c(-c3cc(-c4ccc(Cl)cc4)nc4[nH]nc(N)c34)c2c1	10 mm	2 mm	8 mm	10 mm	7 mm	11 mm	10 mm	8 mm			
Cc1ccc(-c2cc(-c3c(-c4ccccc4)[nH]c4ccccc34)c3c(N)n[nH]c3n2)cc1	5 mm	2 mm	9 mm	11 mm	10 mm	8 mm	9 mm	10 mm			
Nc1ncnc2nc(-c3ccc(Cl)cc3)cc(-c3c(-c4ccccc4)[nH]c4ccc(Cl)cc34)c12	8 mm	8 mm	11 mm	12 mm	11 mm	12 mm	10 mm	8 mm			
Cc1ccc(-c2cc(-c3c(-c4ccccc4)[nH]c4ccc(Cl)cc34)c3c(N)ncnc3n2)cc1	8 mm	4 mm	9 mm	10 mm	9 mm	10 mm	9 mm	5 mm			
Cc1ccc2[nH]c(-c3ccccc3)c(-c3cc(-c4ccc(Cl)cc4)nc4ncnc(N)c34)c2c1	10 mm	5 mm	11 mm	8 mm	6 mm	11 mm	10 mm	8 mm			
Cc1ccc2[nH]c(-c3ccccc3)c(-c3cc(-c4ccccc4)nc4ncnc(N)c34)c2c1	8 mm	10 mm	5 mm	10 mm	8 mm	11 mm	6 mm	6 mm			
Cc1ccc(-c2cc(-c3c(-c4ccccc4)[nH]c4ccccc34)c3c(=O)[nH]cnc3n2)cc1	6 mm	10 mm	10 mm	8 mm	10 mm	5 mm	11 mm	6 mm			
Nc1n[nH]c2nc(-c3ccc(Cl)cc3)cc(-c3c(-c4ccccc4)[nH]c4ccc(Cl)cc34)c12	6 mm	10 mm	6 mm	10 mm	10 mm	8 mm	11 mm	10 mm	73.5%		
O=c1[nH]cnc2nc(-c3ccccc3)cc(-c3c(-c4ccccc4)[nH]c4ccccc34)c12	8 mm	8 mm	10 mm	2 mm	10 mm	11 mm	10 mm	10 mm		Active	
Nc1n[nH]c2nc(-c3ccccc3)cc(-c3c(-c4ccccc4)[nH]c4ccccc34)c12	10 mm	8 mm	11 mm	8 mm	10 mm	6 mm	10 mm	12 mm			75.5%
Cc1ccc(-c2cc(-c3c(-c4ccccc4)[nH]c4ccc(C)cc34)c3c(N)ncnc3n2)cc1	10 mm	5 mm	5 mm	10 mm	5 mm	5 mm	6 mm	8 mm			
